Key:
Experiment in all cases: KINOMEscan competition binding
Conditions in all cases: compound 10.0 µM
ANKK1 (human) = ANKK1 (human) (UniProt Q8NFD2)
CDK15 (human) = CDK15 (human) (UniProt Q96Q40)
CDK8 (human) = CDK8 (human) (UniProt P49336)
CHEK2 (human) = CHEK2 (human) (UniProt O96017)
CSNK2A1 (human) = CSNK2A1 (human) (UniProt P68400)
CaMK1 (human) = CaMK1 (human) (UniProt Q14012)
DAPK1 (human) = DAPK1 (human) (UniProt P53355)
EPHA2 (human) = EPHA2 (human) (UniProt P29317)
FGR (human) = FGR (human) (UniProt P09769)
FLT1 (human) = FLT1 (human) (UniProt P17948)
HCK (human) = HCK (human) (UniProt P08631)
IKBKB (human) = IKBKB (human) (UniProt O14920)
MAP3K1 (human) = MAP3K1 (human) (UniProt Q13233)
MAP3K3 (human) = MAP3K3 (human) (UniProt Q99759)
MAP3K4 (human) = MAP3K4 (human) (UniProt Q9Y6R4)
MAP4K4 (human) = MAP4K4 (human) (UniProt O95819)
MAPK13 (human) = MAPK13 (human) (UniProt O15264)
MKNK1 (human) = MKNK1 (human) (UniProt Q9BUB5)
NEK1 (human) = NEK1 (human) (UniProt Q96PY6)
NTRK3 (human) = NTRK3 (human) (UniProt Q16288)
NUAK2 (human) = NUAK2 (human) (UniProt Q9H093)
PDGFRA (human) = PDGFRA (human) (UniProt P16234)
PIK3C2B (human) = PIK3C2B (human) (UniProt O00750)
PRKACA (human) = PRKACA (human) (UniProt P17612)
PRKG1 (human) = PRKG1 (human) (UniProt Q13976)
PRKG2 (human) = PRKG2 (human) (UniProt Q13237)
RIOK2 (human) = RIOK2 (human) (UniProt Q9BVS4)
RPS6KA2 KD1 (human) = RPS6KA2 KD1 (human) (UniProt Q15349)
RPS6KA3 KD1 (human) = RPS6KA3 KD1 (human) (UniProt P51812)
RPS6KA5 KD1 (human) = RPS6KA5 KD1 (human) (UniProt O75582)
RPS6KA6 KD2 (human) = RPS6KA6 KD2 (human) (UniProt Q9UK32)
SIK2 (human) = SIK2 (human) (UniProt Q9H0K1)
SRPK2 (human) = SRPK2 (human) (UniProt P78362)
STK17A (human) = STK17A (human) (UniProt Q9UEE5)
TAOK3 (human) = TAOK3 (human) (UniProt Q9H2K8)
TGFBR1 (human) = TGFBR1 (human) (UniProt P36897)
TGFBR2 (human) = TGFBR2 (human) (UniProt P37173)
TLK1 (human) = TLK1 (human) (UniProt Q9UKI8)
WEE2 (human) = WEE2 (human) (UniProt P0C1S8)
PRKCH (human) = PRKCH (human) (UniProt P24723)

Chain of SIK2 (human) (Q9H0K1 whole entry, looked up): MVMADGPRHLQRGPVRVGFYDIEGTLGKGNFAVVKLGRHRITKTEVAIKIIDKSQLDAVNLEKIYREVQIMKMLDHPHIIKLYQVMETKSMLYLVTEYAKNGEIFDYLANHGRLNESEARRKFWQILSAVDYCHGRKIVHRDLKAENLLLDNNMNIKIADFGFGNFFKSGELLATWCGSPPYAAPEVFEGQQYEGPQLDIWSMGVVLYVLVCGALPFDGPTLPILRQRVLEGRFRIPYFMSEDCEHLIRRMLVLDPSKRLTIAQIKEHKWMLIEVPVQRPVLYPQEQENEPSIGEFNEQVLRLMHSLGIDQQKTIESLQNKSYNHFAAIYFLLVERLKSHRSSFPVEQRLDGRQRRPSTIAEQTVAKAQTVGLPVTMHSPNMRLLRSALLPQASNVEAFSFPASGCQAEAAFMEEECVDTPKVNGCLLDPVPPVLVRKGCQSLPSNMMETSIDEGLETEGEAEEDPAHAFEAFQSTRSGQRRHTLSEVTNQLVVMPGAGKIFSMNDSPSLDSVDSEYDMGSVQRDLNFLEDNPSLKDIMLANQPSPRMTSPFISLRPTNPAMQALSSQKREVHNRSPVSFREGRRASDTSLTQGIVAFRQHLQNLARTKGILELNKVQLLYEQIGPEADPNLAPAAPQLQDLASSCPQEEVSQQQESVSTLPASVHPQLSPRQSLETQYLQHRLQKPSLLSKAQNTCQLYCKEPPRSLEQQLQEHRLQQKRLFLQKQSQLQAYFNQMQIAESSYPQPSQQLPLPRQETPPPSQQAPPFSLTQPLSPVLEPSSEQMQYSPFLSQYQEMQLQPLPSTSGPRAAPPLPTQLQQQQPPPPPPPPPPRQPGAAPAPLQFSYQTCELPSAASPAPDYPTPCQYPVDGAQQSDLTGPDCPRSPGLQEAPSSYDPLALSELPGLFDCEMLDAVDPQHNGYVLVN
Chain of RIOK2 (human) (Q9BVS4 whole entry, looked up): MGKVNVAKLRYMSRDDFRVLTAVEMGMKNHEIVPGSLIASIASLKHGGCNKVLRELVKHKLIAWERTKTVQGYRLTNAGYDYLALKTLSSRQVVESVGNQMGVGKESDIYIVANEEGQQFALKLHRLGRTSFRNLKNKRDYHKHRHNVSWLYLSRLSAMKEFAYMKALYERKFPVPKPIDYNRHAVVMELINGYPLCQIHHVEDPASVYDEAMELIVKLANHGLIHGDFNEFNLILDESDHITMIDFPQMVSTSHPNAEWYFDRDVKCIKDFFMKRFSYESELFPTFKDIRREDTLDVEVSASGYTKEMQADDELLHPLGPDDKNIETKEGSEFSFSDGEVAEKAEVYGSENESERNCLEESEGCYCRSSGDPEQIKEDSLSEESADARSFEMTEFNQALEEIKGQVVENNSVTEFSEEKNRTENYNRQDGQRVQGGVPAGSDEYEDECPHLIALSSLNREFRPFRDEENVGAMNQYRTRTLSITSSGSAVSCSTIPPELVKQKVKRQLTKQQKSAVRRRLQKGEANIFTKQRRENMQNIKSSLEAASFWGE
Chain of NEK1 (human) (Q96PY6 whole entry, looked up): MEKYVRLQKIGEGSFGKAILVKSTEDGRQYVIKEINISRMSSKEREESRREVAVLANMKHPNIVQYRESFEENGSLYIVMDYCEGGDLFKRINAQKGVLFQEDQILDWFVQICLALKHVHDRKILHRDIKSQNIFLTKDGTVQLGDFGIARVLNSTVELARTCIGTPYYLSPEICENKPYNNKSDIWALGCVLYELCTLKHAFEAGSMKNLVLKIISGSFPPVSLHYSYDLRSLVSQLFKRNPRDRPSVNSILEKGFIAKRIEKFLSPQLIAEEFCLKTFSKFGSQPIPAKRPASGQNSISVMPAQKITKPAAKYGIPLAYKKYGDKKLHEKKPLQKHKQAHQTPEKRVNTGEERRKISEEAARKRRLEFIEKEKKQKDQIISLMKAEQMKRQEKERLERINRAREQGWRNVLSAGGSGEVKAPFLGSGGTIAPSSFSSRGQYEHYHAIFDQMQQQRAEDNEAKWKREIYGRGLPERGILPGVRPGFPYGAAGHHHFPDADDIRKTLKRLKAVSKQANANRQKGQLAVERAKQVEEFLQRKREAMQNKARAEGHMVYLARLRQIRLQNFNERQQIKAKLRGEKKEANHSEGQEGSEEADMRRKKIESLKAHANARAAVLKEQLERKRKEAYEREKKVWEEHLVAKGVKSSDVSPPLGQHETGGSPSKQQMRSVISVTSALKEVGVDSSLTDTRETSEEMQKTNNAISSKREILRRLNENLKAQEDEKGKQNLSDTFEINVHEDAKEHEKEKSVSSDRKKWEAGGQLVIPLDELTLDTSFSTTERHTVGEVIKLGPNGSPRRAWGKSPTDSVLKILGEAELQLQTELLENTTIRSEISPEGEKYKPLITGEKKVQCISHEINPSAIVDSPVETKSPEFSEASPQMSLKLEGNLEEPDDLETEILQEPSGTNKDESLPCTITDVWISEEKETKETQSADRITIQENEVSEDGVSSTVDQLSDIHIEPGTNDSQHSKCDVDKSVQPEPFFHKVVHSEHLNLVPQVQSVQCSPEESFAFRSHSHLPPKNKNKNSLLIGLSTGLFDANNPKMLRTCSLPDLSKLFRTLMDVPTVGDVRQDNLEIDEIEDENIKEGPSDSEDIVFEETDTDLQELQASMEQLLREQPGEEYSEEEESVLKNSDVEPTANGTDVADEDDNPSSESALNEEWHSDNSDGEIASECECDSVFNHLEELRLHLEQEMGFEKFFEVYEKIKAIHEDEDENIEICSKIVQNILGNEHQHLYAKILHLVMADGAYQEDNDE
Chain of SRPK2 (human) (P78362 whole entry, looked up): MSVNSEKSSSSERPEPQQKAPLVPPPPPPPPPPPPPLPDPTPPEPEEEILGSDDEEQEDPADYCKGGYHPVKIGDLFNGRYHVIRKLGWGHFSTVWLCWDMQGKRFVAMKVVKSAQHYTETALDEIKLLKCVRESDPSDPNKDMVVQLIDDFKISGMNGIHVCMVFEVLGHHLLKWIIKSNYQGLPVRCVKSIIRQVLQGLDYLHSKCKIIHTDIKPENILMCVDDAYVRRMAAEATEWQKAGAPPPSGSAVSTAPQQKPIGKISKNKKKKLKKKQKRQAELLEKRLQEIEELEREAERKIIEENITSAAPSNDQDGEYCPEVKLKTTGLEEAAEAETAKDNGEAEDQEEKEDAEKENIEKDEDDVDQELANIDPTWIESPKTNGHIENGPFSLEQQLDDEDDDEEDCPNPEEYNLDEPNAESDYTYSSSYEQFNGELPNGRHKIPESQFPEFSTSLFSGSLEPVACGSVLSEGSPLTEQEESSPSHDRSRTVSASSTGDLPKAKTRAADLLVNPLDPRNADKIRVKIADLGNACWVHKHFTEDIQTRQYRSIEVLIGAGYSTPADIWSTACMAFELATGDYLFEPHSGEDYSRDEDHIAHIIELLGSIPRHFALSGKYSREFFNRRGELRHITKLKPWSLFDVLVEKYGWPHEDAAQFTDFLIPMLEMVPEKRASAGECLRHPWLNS
Chain of CDK8 (human) (P49336 whole entry, looked up): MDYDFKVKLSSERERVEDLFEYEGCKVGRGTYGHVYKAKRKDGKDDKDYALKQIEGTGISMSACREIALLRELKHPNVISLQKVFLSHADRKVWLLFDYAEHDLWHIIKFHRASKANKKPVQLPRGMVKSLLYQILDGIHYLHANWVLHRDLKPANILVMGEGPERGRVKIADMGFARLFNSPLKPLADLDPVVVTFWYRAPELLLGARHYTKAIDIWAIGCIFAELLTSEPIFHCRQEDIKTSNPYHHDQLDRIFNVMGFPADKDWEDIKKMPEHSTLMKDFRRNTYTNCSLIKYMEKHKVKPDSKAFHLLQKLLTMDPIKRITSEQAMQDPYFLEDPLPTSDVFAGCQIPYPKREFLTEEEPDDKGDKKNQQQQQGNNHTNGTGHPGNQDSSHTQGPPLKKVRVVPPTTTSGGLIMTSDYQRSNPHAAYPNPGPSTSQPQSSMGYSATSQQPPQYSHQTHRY
Chain of STK17A (human) (Q9UEE5 whole entry, looked up): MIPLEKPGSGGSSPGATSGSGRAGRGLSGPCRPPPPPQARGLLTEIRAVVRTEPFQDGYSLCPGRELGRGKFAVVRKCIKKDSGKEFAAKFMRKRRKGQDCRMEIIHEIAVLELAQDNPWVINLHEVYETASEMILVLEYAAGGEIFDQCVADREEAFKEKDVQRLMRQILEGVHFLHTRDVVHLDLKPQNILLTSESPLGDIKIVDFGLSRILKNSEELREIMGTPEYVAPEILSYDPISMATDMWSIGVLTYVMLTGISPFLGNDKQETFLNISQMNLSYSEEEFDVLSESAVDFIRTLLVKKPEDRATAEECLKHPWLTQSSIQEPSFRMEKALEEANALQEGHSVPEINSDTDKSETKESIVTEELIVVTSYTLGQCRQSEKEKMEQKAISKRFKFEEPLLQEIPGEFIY
Chain of IKBKB (human) (O14920 whole entry, looked up): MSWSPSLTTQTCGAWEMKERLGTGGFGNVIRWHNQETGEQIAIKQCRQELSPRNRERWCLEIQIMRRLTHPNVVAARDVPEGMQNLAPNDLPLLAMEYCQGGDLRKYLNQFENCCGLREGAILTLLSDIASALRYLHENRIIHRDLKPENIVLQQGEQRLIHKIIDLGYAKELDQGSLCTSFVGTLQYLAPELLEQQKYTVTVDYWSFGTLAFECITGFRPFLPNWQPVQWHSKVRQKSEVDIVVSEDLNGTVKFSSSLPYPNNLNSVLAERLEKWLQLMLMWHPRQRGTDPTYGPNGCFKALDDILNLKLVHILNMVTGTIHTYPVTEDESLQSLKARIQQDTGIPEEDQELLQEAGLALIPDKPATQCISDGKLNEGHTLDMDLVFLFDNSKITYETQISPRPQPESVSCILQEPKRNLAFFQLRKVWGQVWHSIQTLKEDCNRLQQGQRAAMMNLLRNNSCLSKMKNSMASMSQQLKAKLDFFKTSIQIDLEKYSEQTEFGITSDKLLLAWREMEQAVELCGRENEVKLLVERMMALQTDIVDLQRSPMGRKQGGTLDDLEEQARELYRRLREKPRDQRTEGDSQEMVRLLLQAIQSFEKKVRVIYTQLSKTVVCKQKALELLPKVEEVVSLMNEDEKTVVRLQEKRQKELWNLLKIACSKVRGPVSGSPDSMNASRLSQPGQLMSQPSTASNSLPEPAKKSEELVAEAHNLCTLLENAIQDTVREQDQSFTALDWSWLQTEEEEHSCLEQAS

Work on N#CCNC(=O)c1ccc(-c2ccnc(Nc3ccc(N4CCOCC4)cc3)n2)cc1 yielded a kinase still bound, per cent of control (ANKK1 (human)) of 100%, a kinase still bound, per cent of control (CDK15 (human)) of 58% and a kinase still bound, per cent of control (CDK8 (human)) of 100%. For the same compound, the kinase still bound, per cent of control (CHEK2 (human)) was 100%, the kinase still bound, per cent of control (CSNK2A1 (human)) was 52% and the kinase still bound, per cent of control (CaMK1 (human)) was 59%. It also gave a kinase still bound, per cent of control (DAPK1 (human)) of 7%, a kinase still bound, per cent of control (EPHA2 (human)) of 100% and a kinase still bound, per cent of control (FGR (human)) of 92%. It also gave a kinase still bound, per cent of control (FLT1 (human)) of 55%, a kinase still bound, per cent of control (HCK (human)) of 100% and a kinase still bound, per cent of control (IKBKB (human)) of 0.15%. The kinase still bound, per cent of control (MAP3K1 (human)) was 92%, the kinase still bound, per cent of control (MAP3K3 (human)) was 51% and the kinase still bound, per cent of control (MAP3K4 (human)) was 92%. The kinase still bound, per cent of control (MAP4K4 (human)) was 85%, the kinase still bound, per cent of control (MAPK13 (human)) was 100% and the kinase still bound, per cent of control (MKNK1 (human)) was 84%. For the same compound, the kinase still bound, per cent of control (NEK1 (human)) was 42%, the kinase still bound, per cent of control (NTRK3 (human)) was 63% and the kinase still bound, per cent of control (NUAK2 (human)) was 8.9%. The kinase still bound, per cent of control (PDGFRA (human)) was 100%, the kinase still bound, per cent of control (PIK3C2B (human)) was 56% and the kinase still bound, per cent of control (PRKACA (human)) was 96%. The kinase still bound, per cent of control (PRKG1 (human)) was 100%, the kinase still bound, per cent of control (PRKG2 (human)) was 100% and the kinase still bound, per cent of control (RIOK2 (human)) was 68%. For the same compound, the kinase still bound, per cent of control (RPS6KA2 KD1 (human)) was 100%, the kinase still bound, per cent of control (RPS6KA3 KD1 (human)) was 100% and the kinase still bound, per cent of control (RPS6KA5 KD1 (human)) was 100%. It also gave a kinase still bound, per cent of control (RPS6KA6 KD2 (human)) of 52%, a kinase still bound, per cent of control (SIK2 (human)) of 14% and a kinase still bound, per cent of control (SRPK2 (human)) of 30%. For the same compound, the kinase still bound, per cent of control (STK17A (human)) was 0.2%, the kinase still bound, per cent of control (TAOK3 (human)) was 100% and the kinase still bound, per cent of control (TGFBR1 (human)) was 76%. For the same compound, the kinase still bound, per cent of control (TGFBR2 (human)) was 89%, the kinase still bound, per cent of control (TLK1 (human)) was 59% and the kinase still bound, per cent of control (WEE2 (human)) was 100%.
For O=c1cc(N2CCOCC2)oc2c(-c3cccc4c3sc3ccccc34)cccc12, the kinase still bound, per cent of control (ANKK1 (human)) was 100%, the kinase still bound, per cent of control (CDK15 (human)) was 85% and the kinase still bound, per cent of control (CDK8 (human)) was 100%. It also gave a kinase still bound, per cent of control (CHEK2 (human)) of 100%, a kinase still bound, per cent of control (CSNK2A1 (human)) of 74% and a kinase still bound, per cent of control (CaMK1 (human)) of 91%. It also gave a kinase still bound, per cent of control (DAPK1 (human)) of 72%, a kinase still bound, per cent of control (EPHA2 (human)) of 72% and a kinase still bound, per cent of control (FGR (human)) of 92%. For the same compound, the kinase still bound, per cent of control (FLT1 (human)) was 97%, the kinase still bound, per cent of control (HCK (human)) was 100% and the kinase still bound, per cent of control (IKBKB (human)) was 100%. It also gave a kinase still bound, per cent of control (MAP3K1 (human)) of 100%, a kinase still bound, per cent of control (MAP3K3 (human)) of 92% and a kinase still bound, per cent of control (MAP3K4 (human)) of 100%. The kinase still bound, per cent of control (MAP4K4 (human)) was 100%, the kinase still bound, per cent of control (MAPK13 (human)) was 99% and the kinase still bound, per cent of control (MKNK1 (human)) was 100%. For the same compound, the kinase still bound, per cent of control (NEK1 (human)) was 58%, the kinase still bound, per cent of control (NTRK3 (human)) was 74% and the kinase still bound, per cent of control (NUAK2 (human)) was 100%. It also gave a kinase still bound, per cent of control (PDGFRA (human)) of 100%, a kinase still bound, per cent of control (PIK3C2B (human)) of 20% and a kinase still bound, per cent of control (PRKACA (human)) of 87%. It also gave a kinase still bound, per cent of control (PRKCH (human)) of 100%, a kinase still bound, per cent of control (PRKG1 (human)) of 100% and a kinase still bound, per cent of control (PRKG2 (human)) of 93%. For the same compound, the kinase still bound, per cent of control (RIOK2 (human)) was 22%, the kinase still bound, per cent of control (RPS6KA2 KD1 (human)) was 97% and the kinase still bound, per cent of control (RPS6KA3 KD1 (human)) was 84%. It also gave a kinase still bound, per cent of control (RPS6KA5 KD1 (human)) of 100%, a kinase still bound, per cent of control (RPS6KA6 KD2 (human)) of 79% and a kinase still bound, per cent of control (SIK2 (human)) of 75%. It also gave a kinase still bound, per cent of control (SRPK2 (human)) of 78%, a kinase still bound, per cent of control (STK17A (human)) of 95% and a kinase still bound, per cent of control (TAOK3 (human)) of 97%. It also gave a kinase still bound, per cent of control (TGFBR1 (human)) of 100%, a kinase still bound, per cent of control (TGFBR2 (human)) of 89% and a kinase still bound, per cent of control (TLK1 (human)) of 71%. The kinase still bound, per cent of control (WEE2 (human)) was 100%.
With NC(=O)Nc1cc(-c2cccc(F)c2)sc1C(=O)N[C@@H]1CCCNC1 the kinase still bound, per cent of control (ANKK1 (human)) was 1.2%, the kinase still bound, per cent of control (CDK15 (human)) was 73% and the kinase still bound, per cent of control (CDK8 (human)) was 71%. The kinase still bound, per cent of control (CHEK2 (human)) was 3.8%, the kinase still bound, per cent of control (CSNK2A1 (human)) was 0.35% and the kinase still bound, per cent of control (CaMK1 (human)) was 2%. For the same compound, the kinase still bound, per cent of control (DAPK1 (human)) was 0.1%, the kinase still bound, per cent of control (EPHA2 (human)) was 7.4% and the kinase still bound, per cent of control (FGR (human)) was 0.2%. For the same compound, the kinase still bound, per cent of control (FLT1 (human)) was 0.1%, the kinase still bound, per cent of control (HCK (human)) was 0% and the kinase still bound, per cent of control (IKBKB (human)) was 2.5%. It also gave a kinase still bound, per cent of control (MAP3K1 (human)) of 51%, a kinase still bound, per cent of control (MAP3K3 (human)) of 0% and a kinase still bound, per cent of control (MAP3K4 (human)) of 42%. It also gave a kinase still bound, per cent of control (MAP4K4 (human)) of 0.5%, a kinase still bound, per cent of control (MAPK13 (human)) of 100% and a kinase still bound, per cent of control (MKNK1 (human)) of 6%. For the same compound, the kinase still bound, per cent of control (NEK1 (human)) was 24%, the kinase still bound, per cent of control (NTRK3 (human)) was 0.2% and the kinase still bound, per cent of control (NUAK2 (human)) was 2.2%. It also gave a kinase still bound, per cent of control (PIK3C2B (human)) of 16%, a kinase still bound, per cent of control (PRKACA (human)) of 1.4% and a kinase still bound, per cent of control (PRKCH (human)) of 1.4%. For the same compound, the kinase still bound, per cent of control (PRKG1 (human)) was 0.8%, the kinase still bound, per cent of control (PRKG2 (human)) was 0.5% and the kinase still bound, per cent of control (RIOK2 (human)) was 48%. For the same compound, the kinase still bound, per cent of control (RPS6KA2 KD1 (human)) was 5%, the kinase still bound, per cent of control (RPS6KA3 KD1 (human)) was 0.95% and the kinase still bound, per cent of control (RPS6KA5 KD1 (human)) was 49%. The kinase still bound, per cent of control (RPS6KA6 KD2 (human)) was 1.2%, the kinase still bound, per cent of control (SIK2 (human)) was 2.6% and the kinase still bound, per cent of control (SRPK2 (human)) was 4.4%. The kinase still bound, per cent of control (STK17A (human)) was 0.55%, the kinase still bound, per cent of control (TAOK3 (human)) was 2.9% and the kinase still bound, per cent of control (TGFBR1 (human)) was 47%. The kinase still bound, per cent of control (TGFBR2 (human)) was 2.4%, the kinase still bound, per cent of control (TLK1 (human)) was 0.9% and the kinase still bound, per cent of control (WEE2 (human)) was 91%.

Source: the kinase profiling compilation of Christmann-Franck et al. (2016)
